Columns and labels:
Type in all cases: cell-based
[1] = biological target: T1, wild type K-Ras (Homo sapiens, UniProt P01116); assay: G-LISA Ras activation, 293H cells transfected with Ras wild-type, EGF stimulated; conditions: compound 1 hour, then 100 ng/ml EGF 2 minutes
T1 construct: expressed in transfected cells; host or cells: 293H cells
Method in brief: (§1)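 293H cells were transfected with wild-type or mutant Ras plasmid (Lipofectamine 3000), then exposed next day to compounds at 3.125-25 μM for 1 hour. Wild-type transfectants received 100 ng/ml EGF for 2 minutes before ice-cold PBS wash, lysis on ice and G-LISA readout of active Ras.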

[2] = biological target: T2, K-Ras G12D (Homo sapiens, UniProt P01116, G12D); assay: G-LISA Ras activation, 293H cells transfected with G12D mutant; conditions: compound 1 hour
T2 construct: expressed in transfected cells; host or cells: 293H cells
T2 sequence (P01116 whole entry G12D): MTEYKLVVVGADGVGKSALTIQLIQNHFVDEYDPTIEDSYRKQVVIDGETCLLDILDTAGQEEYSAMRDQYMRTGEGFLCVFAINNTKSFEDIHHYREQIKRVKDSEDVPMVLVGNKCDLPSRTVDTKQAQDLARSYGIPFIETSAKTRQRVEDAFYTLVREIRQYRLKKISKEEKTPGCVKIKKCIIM
Method in brief: as §1

[3] = biological target: T3, K-Ras G12V (Homo sapiens, UniProt P01116, G12V); assay: G-LISA Ras activation, 293H cells transfected with G12V mutant; conditions: compound 1 hour
T3 construct: expressed in transfected cells; host or cells: 293H cells
T3 sequence (P01116 whole entry G12V): as the sequence (P01116 whole entry G12D) above, with D12V counted along it
Method: 293H cells were seeded in 6-wells at 0.6×10^6 cells per well and transfected next day with 5 μg of Ras wild-type, or G12C, G12D or G12V mutant DNA plasmid vector using transfection reagent Lipofectamine 3000. Next day cells were treated with 3.125-25 μM of Ras compounds for 1 hour. Wild-type transfected cells were subsequently treated with 100 ng/ml EGF for 2 minutes. Cells were washed once in ice-cold PBS, lysed in complete lysis buffer on ice, and processed by G-LISA according to Cytoskeleton protocol.

[4] = test system: Ishikawa (K-Ras wild type cell line); assay: Viability assay (CellTiterBlue, 72 hr) Ishikawa; conditions: Homo sapiens, GI50, CellTiterBlue, Ishikawa K-Ras wild-type
Method in brief: (§2)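 1000 cells/well, 18 hr pre-incubation at 37 °C; compound added from DMSO stock, 0.5% DMSO final; 72 hr; CellTiterBlue 3 hr, fluorescence Ex550/Em590; GI50 normalized to DMSO = 100%, 100 uM tamoxifen = 0% viability.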

[5] = test system: HCC827 (K-Ras wild type cell line); assay: Viability assay (CellTiterBlue, 72 hr) HCC827; conditions: Homo sapiens, GI50, CellTiterBlue, HCC827 K-Ras wild-type
Method in brief: as §2

[6] = test system: Panc1-G12D; assay: Viability assay (CellTiterBlue, 72 hr) Panc1; conditions: Homo sapiens, PANC-1, GI50, CellTiterBlue, Panc1 K-Ras G12D, read-out: 72 hr Cell Viability Panc1 (G12D)
Method in brief: as §2

[7] = test system: Panc10.05-G12D; assay: Viability assay (CellTiterBlue, 72 hr) Panc10.05; conditions: Homo sapiens, Panc1005, GI50, CellTiterBlue, Panc10.05 K-Ras G12D, read-out: 72 hr Cell Viability Panc10.05 (G12D)
Method in brief: as §2

[8] = test system: HCT116-G31D; assay: Viability assay (CellTiterBlue, 72 hr) HCT116; conditions: Homo sapiens, HCT-116, GI50, CellTiterBlue, HCT116 K-Ras G13D, read-out: 72 hr Cell Viability HCT116 (G13D)
Method in brief: as §2

[9] = test system: phospho-ERK in HCC827 (Wild-type); assay: In-Cell Western phospho-ERK, HCC827; conditions: Homo sapiens, 1 h; HCC827, one hour treatment; read-out: In-Cell Western HCC827 (Wild-type) Erk (P)
Method in brief: (§3)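 In-cell immunofluorescence: after 1 h compound exposure (final DMSO 0.5%) of cells plated 18 h beforehand, fixed cells were probed overnight at 4 °C with phospho-Akt/phospho-ERK antibodies and imaged. Maximal inhibition defined by 1 uM MEK Inhibitor II for pERK, 1 uM BEZ235 for pAkt; EC50 calculated.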

[10] = test system: phospho-ERK in A375 (Wild-type); assay: In-Cell Western phospho-ERK, A375; conditions: Homo sapiens, A-375, 1 h; A375, one hour treatment; read-out: In-Cell Western A375 (Wild-type) Erk (P)
Method in brief: as §3

[11] = test system: phospho-Akt in A375 (Wild-type); assay: In-Cell Western phospho-Akt, A375; conditions: Homo sapiens, A-375, 1 h; A375, one hour treatment; read-out: In-Cell Western A375 (Wild-type) Akt (P)
Method in brief: as §3

[12] = test system: phospho-ERK in Panc1 (G12D); assay: In-Cell Western phospho-ERK, Panc1; conditions: Homo sapiens, PANC-1, 1 h; Panc1, one hour treatment; read-out: In-Cell Western Panc1 (G12D) Erk (P)
Method in brief: as §3

[13] = test system: phospho-Akt in Panc1 (G12D); assay: In-Cell Western phospho-Akt, Panc1; conditions: Homo sapiens, PANC-1, 1 h; Panc1, one hour treatment; read-out: In-Cell Western Panc1 (G12D) Akt (P)
Method in brief: as §3

[14] = test system: phospho-ERK in Panc10.05 (G12D); assay: In-Cell Western phospho-ERK, Panc10.05; conditions: Homo sapiens, Panc1005, 1 h; Panc10.05, one hour treatment; read-out: In-Cell Western Panc10.05 (G12D) Erk (P)
Method in brief: as §3

[15] = test system: phospho-Akt in Panc10.05 (G12D); assay: In-Cell Western phospho-Akt, Panc10.05; conditions: Homo sapiens, Panc1005, 1 h; Panc10.05, one hour treatment; read-out: In-Cell Western Panc10.05 (G12D) Akt (P)
Method in brief: as §3

[16] = test system: phospho-Akt in HCC827 (Wild-type); assay: In-Cell Western phospho-Akt, HCC827; conditions: Homo sapiens, 1 h; HCC827, one hour treatment; read-out: In-Cell Western HCC827 (Wild-type) Akt (P)
Method in brief: as §3

[17] = test system: U87-MG (K-Ras wild type cell line); assay: Viability assay (CellTiterBlue, 72 hr) U87-MG; conditions: Homo sapiens, U-87 MG, GI50, CellTiterBlue, U87-MG K-Ras wild-type
Method in brief: as §2

[18] = test system: A375 (K-Ras wild type cell line); assay: Viability assay (CellTiterBlue, 72 hr) A375; conditions: Homo sapiens, A-375, GI50, CellTiterBlue
Method in brief: as §2

T1 sequence (P01116 whole entry): as the sequence (P01116 whole entry G12D) above, with D12G counted along it

Compound | IC50 [1] | IC50 [2] | IC50 [3] | IC50 [4] | IC50 [5] | IC50 [6] | IC50 [7] | IC50 [8] | EC50 [9] | EC50 [10] | EC50 [11] | EC50 [12] | EC50 [13] | EC50 [14] | EC50 [15] | EC50 [16] | IC50 [17] | IC50 [18]
Cc1nc(C2CCC2)oc1C(=O)Nc1nc(-c2ccc3c(c2)CCC(=O)N3)cs1 [Compound 8, 2-cyclobutyl-4-methyl-N-(4-(2-oxo-1,2,3,4-tetrahydroquinolin-6-yl)thiazol-2-yl)oxazole-5-carboxamide] | 15.5 µM | 5.9 µM | > 25 µM | > 25 µM | > 25 µM | 17 µM | 1.3 µM | > 25 µM | > 25 µM | > 25 µM | > 25 µM | > 25 µM | > 25 µM | 2 µM | 6 µM | – | – | –
Cc1nc(C)c(C(=O)Nc2nc(-c3ccc4c(c3)CCC(=O)N4CC3CCCOC3)cs2)o1 (centres unmarked) [Compound 66, 2,4-dimethyl-N-(4-(2-oxo-1-((tetrahydro-2H-pyran-3-yl)methyl)-1,2,3,4-tetrahydroquinolin-6-yl)thiazol-2-yl)oxazole-5-carboxamide] | 11.1 µM | 4.5 µM | 6.5 µM | 2 µM | 4 µM | 6 µM | 2 µM | 3 µM | 4 µM | – | – | 3 µM | 2 µM | 3 µM | 18 µM | 15 µM | – | –
Cc1nn(C(C)(C)C)c(C)c1C(=O)Nc1nc(-c2ccc3c(c2)CCC(=O)N3)cs1 [Compound 57, 1-(tert-butyl)-3,5-dimethyl-N-(4-(2-oxo-1,2,3,4-tetrahydroquinolin-6-yl)thiazol-2-yl)-1H-pyrazole-4-carboxamide] | 30 µM | 9.4 µM | – | > 25 µM | > 25 µM | > 25 µM | 8 µM | > 25 µM | > 25 µM | > 25 µM | > 25 µM | 26 µM | > 25 µM | 6 µM | > 25 µM | > 25 µM | > 25 µM | 27 µM
COCCN1C(=O)CCc2cc(-c3csc(NC(=O)c4oc(C(C)C)nc4C)n3)ccc21 [Compound 111, 2-isopropyl-NA-(4-(1-(2-methoxyethyl)-2-oxo-1,2,3,4-tetrahydroquinolin-6-yl)thiazol-2-yl)-4-methyloxazole-5-carboxamide] | 3.9 µM | 2.5 µM | – | 4 µM | 2 µM | 2 µM | 0.852 µM | 24 µM | 1.6 µM | 12 µM | > 25 µM | 1.4 µM | 16 µM | 0.767 µM | 2 µM | > 25 µM | 7 µM | 7 µM
Cc1nn(C(C)C)c(C)c1C(=O)Nc1nc(-c2ccc3c(c2)CCC(=O)N3Cc2cccnc2)cs1 [Compound 117, 1-isopropyl-3,5-dimethyl-N-(4-(2-oxo-1-(pyridin-3-ylmethyl)-1,2,3,4-tetrahydroquinolin-6-yl)thiazol-2-yl)-1H-pyrazole-4-carboxamide] | 6.7 µM | 2.6 µM | – | 5 µM | 4 µM | 3 µM | 1.4 µM | > 25 µM | 4 µM | 15 µM | > 25 µM | 4 µM | 23 µM | 0.914 µM | 3 µM | > 25 µM | > 25 µM | 14 µM
